Here are results for 13 compounds from ChEMBL document CHEMBL3751803, “Discovery of an in Vivo Tool to Establish Proof-of-Concept for MAP4K4-Based Antidiabetic Treatment” (ACS Med Chem Lett, 2015).

pIC50: −log10 of the molar value. Values after ≈ are worked out from the molar mass of the structure shown.

A short description of data set [1]: Passive permeability in MDCK2 cell with low efflux. Format: ADME, cell-based, Canis lupus familiaris, MDCK-II. The settings on record: dog, MDCK.
Data set [2] can be described thus: Lipophilicity, log D of the compound. The settings on record: octanol/water. Format: physicochemical.
In data set [3] the target is T1, Mitogen-activated protein kinase kinase kinase kinase 4 (Homo sapiens, UniProt O95819). In words: Inhibition of recombinant human MAP4K4 catalytic domain in presence of 10 uM ATP (Km) by FRET assay.
Data set [4] addresses T1, Mitogen-activated protein kinase kinase kinase kinase 4. The experiment in a line: Inhibition of human MAP4K4 transfected in 293 MSR cells assessed as inhibition of phosphorylation of traf2 at ser/thr residue by ELISA. The data set is classed as cell-based. (In general: In an ELISA, binding on a coated surface is turned into a signal by an enzyme label.)
Data set [5] has the same target. In words: Inhibition of recombinant human MAP4K4 catalytic domain in presence of 1 mM ATP by FRET assay.
The nature of data set [6]: Solubility of compound at pH 1.2. The data set is classed as physicochemical. The settings on record: buffer.
Data set [7] can be described thus: Solubility of compound at pH 6.5. Format: physicochemical. Particulars: buffer.
Another data set deals with Liver microsome. The experiment in a line: Unbound intrinsic clearance in human liver microsomes. Format: ADME.
In data set [8] the target is T2, CYP3A4 (Homo sapiens, UniProt P08684). The experiment in a line: Inhibition of CYP3A4 (unknown origin) at 3 uM. Format: ADME.
The target in a further data set is CYP2D6 (Homo sapiens, UniProt P10635). In words: Inhibition of CYP2D6 (unknown origin) at 3 uM. The data set is classed as ADME.
The target in a further data set is T3, CYP2C8 (Homo sapiens, UniProt P10632).
T3 sequence (P10632 whole entry): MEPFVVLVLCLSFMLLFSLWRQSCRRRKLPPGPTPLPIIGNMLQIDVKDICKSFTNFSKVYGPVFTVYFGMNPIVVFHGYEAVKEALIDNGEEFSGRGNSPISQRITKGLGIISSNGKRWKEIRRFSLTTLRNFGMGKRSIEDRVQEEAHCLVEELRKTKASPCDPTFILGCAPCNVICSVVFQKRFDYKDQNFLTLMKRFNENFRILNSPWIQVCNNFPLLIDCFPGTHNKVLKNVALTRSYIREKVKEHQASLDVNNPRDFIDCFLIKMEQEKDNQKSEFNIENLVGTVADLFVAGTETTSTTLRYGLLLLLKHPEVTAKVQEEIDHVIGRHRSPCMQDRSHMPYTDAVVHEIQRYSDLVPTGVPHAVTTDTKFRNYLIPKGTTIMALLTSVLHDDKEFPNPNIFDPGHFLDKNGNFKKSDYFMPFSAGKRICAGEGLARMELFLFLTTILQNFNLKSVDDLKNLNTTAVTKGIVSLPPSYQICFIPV
In words: Inhibition of CYP2C8 (unknown origin) at 3 uM. Format: ADME.

The target in another data set is CYP2C9 (Homo sapiens, UniProt P11712). In words: Inhibition of CYP2C9 (unknown origin) at 3 uM. Format: ADME.
For the next data set, the target named is T4, CYP1A2 (Homo sapiens, UniProt P05177).
T4 sequence (P05177 whole entry): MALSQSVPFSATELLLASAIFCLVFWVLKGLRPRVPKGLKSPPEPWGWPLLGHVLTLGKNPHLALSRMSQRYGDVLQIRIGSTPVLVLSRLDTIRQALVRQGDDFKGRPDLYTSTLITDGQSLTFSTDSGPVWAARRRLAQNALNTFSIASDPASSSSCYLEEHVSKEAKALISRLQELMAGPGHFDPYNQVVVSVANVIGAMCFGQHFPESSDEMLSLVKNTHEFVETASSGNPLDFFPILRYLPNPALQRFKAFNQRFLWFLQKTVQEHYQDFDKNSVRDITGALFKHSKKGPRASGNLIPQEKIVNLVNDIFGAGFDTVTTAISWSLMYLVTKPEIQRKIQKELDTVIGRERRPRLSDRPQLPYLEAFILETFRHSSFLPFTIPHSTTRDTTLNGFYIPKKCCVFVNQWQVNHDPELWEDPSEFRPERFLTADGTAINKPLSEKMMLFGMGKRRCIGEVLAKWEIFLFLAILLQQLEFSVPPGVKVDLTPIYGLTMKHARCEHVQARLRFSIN
The experiment in a line: Inhibition of CYP1A2 (unknown origin) at 3 uM. The data set is classed as ADME.

The target of data set [9] is Voltage-gated inwardly rectifying potassium channel KCNH2 (Homo sapiens, UniProt Q12809). The experiment in a line: Inhibition of human ERG transfected in HEK293 cells. The data set is classed as cell-based.
Another data set concerns Epithelial cell. The experiment in a line: Cytotoxicity against human liver epithelial cells.
The next data set deals with Salmonella typhimurium. The experiment in a line: Mutagenicity in Salmonella typhimurium by Ames test. Format: toxicity, organism-based. Particulars: salmonella enterica subsp. enterica serovar typhimurium.
The target in data set [10] is T2, CYP3A4. In words: Time dependent inhibition of CYP3A4 (unknown origin) using midazolam as substrate at 30 uM. The data set is classed as ADME. Particulars: probe midazolam.
Data set [11] addresses T2, CYP3A4. In words: Time dependent inhibition of CYP3A4 (unknown origin) using midazolam as substrate at 60 uM. The data set is classed as ADME. The settings on record: probe midazolam.
In data set [12] the target is TRAF2 and NCK-interacting protein kinase (Homo sapiens, UniProt Q9UKE5). In words: Inhibition of TNIK (unknown origin) in presence of ATP (Km).
The target in a further data set is Misshapen-like kinase 1 (Homo sapiens, UniProt Q8N4C8). The experiment in a line: Inhibition of MINK (unknown origin) in presence of ATP (Km).
The target in the next data set is T5, Cytochrome P450 1A2 (Homo sapiens, UniProt P05177).
T5 sequence (P05177 whole entry): T4 sequence (P05177 whole entry)
The experiment in a line: Inhibition of CYP1A2 (unknown origin). The data set is classed as ADME.

A short description of data set [13]: Fraction unbound in mouse plasma at 10 mg/kg, po. The data set is classed as ADME, organism-based.
The test system of data set [14] is Mus musculus. In words: Inhibition of LPS-induced TNF-alpha level in C57/Bl6 mouse blood at 15 mg/kg, po administered 30 mins prior to LPS challenge measured after […]. Format: functional. The settings on record: C57/BI6, Blood.
In another data set the test system is Plasma. In words: Plasma concentration in C57/Bl6 mouse at 15 mg/kg, po. Format: ADME, organism-based, C57/BI6. The settings on record: in vivo.
In data set [15] the test system is Mus musculus. The experiment in a line: Decrease in blood glucose level in ob/ob mouse at 10 mg/kg, po bid for 4 weeks. Particulars: 672 h. Format: functional.

One may read the Papp as a coefficient for how fast a substance crosses the barrier. Low readings indicate slow passage, high ones fast passage. One may read the logD as lipophilicity at a set pH, counting ionised and neutral species. The pIC50 is the negative decadic logarithm of the IC50, by convention in mol/L. For orientation: solubility means the dissolved amount per volume that the medium holds. Broadly, the inhibition is the share of the control response that was lost under treatment. By fraction unbound is commonly meant free concentration divided by total concentration. A high value points to weak binding. The term inhibition in vivo denotes the relative decrease from the control value, in per cent.

T1 sequence (O95819 whole entry, the tested form may be a part): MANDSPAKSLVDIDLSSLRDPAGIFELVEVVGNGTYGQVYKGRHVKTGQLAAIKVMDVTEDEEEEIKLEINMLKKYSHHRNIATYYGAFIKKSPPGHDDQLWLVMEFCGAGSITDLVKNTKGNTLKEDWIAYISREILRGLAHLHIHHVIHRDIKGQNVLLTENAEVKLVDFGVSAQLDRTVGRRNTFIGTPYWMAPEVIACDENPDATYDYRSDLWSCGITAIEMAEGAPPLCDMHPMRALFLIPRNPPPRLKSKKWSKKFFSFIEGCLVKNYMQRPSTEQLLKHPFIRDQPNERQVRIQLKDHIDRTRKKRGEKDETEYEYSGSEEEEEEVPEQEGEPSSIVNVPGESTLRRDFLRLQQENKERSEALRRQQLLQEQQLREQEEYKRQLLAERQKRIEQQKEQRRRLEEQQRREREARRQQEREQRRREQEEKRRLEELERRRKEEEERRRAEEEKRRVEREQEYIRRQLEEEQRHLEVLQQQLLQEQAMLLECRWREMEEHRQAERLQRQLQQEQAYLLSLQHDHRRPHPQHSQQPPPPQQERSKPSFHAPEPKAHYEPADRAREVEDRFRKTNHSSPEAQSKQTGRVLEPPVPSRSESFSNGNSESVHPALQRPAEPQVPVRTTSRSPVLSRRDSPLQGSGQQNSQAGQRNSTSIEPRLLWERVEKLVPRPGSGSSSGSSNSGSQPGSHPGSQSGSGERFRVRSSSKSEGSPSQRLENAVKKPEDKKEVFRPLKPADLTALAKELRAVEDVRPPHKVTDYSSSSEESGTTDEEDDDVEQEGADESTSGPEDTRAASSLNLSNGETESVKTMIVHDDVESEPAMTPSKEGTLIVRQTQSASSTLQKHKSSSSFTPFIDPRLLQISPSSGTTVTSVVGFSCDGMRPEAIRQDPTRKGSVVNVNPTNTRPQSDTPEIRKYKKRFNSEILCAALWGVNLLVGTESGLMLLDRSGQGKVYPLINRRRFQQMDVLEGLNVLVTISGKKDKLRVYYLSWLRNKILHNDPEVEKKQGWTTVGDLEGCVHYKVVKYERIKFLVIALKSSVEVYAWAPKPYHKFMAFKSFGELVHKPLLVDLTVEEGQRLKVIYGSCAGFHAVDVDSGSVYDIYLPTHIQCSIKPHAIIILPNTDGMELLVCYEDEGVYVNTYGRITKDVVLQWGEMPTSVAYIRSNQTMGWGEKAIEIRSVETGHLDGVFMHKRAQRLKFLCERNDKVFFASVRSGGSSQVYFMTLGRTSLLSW
T2 sequence (P08684 whole entry): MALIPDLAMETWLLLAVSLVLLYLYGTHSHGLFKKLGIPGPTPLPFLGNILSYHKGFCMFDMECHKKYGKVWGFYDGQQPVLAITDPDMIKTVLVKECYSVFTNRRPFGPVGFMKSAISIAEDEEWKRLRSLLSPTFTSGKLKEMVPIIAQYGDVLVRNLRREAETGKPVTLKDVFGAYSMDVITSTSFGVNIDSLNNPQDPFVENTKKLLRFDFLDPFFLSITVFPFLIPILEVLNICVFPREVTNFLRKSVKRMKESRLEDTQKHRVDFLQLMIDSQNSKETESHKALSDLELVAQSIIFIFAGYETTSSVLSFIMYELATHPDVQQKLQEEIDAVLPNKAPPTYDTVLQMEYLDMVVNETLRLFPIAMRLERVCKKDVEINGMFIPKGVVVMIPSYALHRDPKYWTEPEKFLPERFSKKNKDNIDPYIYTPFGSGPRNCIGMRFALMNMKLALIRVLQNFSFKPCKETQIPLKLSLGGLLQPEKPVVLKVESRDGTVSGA
Chain of Voltage-gated inwardly rectifying potassium channel KCNH2 (Q12809 whole entry): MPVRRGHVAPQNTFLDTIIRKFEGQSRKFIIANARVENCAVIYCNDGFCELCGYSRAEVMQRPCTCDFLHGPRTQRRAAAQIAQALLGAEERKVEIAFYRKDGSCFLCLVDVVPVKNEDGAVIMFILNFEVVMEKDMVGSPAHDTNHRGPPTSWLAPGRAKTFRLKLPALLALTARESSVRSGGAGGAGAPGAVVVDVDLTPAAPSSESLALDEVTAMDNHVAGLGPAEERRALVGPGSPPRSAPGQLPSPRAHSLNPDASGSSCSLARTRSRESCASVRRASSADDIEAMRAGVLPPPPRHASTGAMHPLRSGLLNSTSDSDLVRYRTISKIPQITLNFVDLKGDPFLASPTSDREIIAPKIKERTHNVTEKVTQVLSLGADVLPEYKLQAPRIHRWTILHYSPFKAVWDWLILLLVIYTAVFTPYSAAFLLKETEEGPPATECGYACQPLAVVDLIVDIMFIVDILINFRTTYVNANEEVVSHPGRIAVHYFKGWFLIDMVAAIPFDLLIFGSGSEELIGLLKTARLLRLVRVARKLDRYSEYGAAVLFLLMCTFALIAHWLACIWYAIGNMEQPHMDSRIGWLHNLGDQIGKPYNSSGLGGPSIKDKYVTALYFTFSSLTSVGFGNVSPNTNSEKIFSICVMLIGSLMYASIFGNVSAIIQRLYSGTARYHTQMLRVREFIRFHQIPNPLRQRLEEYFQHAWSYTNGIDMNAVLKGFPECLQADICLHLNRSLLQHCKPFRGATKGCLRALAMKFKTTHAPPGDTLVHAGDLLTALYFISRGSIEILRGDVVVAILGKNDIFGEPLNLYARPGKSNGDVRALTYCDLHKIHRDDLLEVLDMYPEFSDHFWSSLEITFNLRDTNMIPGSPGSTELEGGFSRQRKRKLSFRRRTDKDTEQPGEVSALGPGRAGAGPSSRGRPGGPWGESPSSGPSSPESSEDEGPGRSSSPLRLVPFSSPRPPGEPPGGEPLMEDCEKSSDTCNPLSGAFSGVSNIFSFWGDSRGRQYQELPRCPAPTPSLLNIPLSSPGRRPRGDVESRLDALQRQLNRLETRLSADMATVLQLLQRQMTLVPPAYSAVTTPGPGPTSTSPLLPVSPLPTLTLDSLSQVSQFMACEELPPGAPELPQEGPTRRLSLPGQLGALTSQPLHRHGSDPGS
Chain of CYP2C9 (P11712 whole entry): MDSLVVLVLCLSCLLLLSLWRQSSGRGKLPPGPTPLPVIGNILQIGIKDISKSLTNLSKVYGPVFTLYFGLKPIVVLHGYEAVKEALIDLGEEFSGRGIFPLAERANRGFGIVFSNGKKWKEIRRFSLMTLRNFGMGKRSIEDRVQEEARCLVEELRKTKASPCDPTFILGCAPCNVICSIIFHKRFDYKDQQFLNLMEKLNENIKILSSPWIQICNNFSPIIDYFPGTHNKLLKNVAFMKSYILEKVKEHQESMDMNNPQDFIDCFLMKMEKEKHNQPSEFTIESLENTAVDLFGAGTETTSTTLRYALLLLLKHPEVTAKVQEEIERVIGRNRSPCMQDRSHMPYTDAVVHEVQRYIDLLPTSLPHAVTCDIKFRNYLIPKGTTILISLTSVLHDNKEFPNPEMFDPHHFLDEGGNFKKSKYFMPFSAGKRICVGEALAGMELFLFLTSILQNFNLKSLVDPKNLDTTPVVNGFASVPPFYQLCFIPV
Chain of CYP2D6 (P10635 whole entry): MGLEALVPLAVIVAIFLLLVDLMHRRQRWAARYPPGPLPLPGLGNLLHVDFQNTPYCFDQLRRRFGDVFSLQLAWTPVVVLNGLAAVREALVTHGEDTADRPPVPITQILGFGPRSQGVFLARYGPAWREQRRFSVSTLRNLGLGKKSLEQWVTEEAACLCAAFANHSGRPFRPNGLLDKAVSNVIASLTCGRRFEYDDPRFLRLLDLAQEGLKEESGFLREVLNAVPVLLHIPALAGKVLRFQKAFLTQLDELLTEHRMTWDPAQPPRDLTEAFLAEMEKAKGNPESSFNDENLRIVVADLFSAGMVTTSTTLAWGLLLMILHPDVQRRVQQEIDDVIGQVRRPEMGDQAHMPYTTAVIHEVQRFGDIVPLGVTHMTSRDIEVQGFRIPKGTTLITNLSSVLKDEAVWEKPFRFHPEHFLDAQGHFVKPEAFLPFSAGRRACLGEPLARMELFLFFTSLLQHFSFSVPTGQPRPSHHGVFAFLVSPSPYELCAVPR

Regarding `NC(=O)c1ccc(-c2cncc(-c3ccc(OC4CC4)cc3)c2)cc1`, in [1], the Papp is 3.5 ×10⁻⁶ cm/s.

With `NC(=O)c1ccc(-c2ncc(-c3ccc(Cl)cc3)o2)cc1`, the logD in data set [2] worked out at 3.6. Further, the pIC50 in data set [3] is 7.03; in data set [4], 5.20; in [5], under 5.00.

The compound `NC(=O)c1ccc(-c2cc(-c3ccc(Cl)cc3)ccn2)cc1` came in with a Papp in data set [1] of 4.4 ×10⁻⁶ cm/s.

`COc1ccc(-c2cncc(-c3ccc(C(N)=O)cc3)c2)cc1` had a Papp in data set [1] of 8.7 ×10⁻⁶ cm/s.

In the case of `Cn1c(-c2ccc(Cl)cc2)cnc1-c1ccc(C(N)=O)cc1`, the Papp in data set [1] stood at 15.6 ×10⁻⁶ cm/s.

With `NC(=O)c1ccc(-c2cn(-c3ccc(Cl)cc3)cn2)cc1`, in [1], the apparent permeability (Papp) was 2.9 ×10⁻⁶ cm/s.

As for `Nc1ncc(-c2cnc(N)c(-c3ccc(Cl)cc3)c2)cn1`, the solubility came to 3960 µg/mL (≈ 13.3 mM) in data set [6] (read-out: solubility) and 2 µg/mL (≈ 0.00672 mM) in [7]. Moreover, in the data set with Liver microsome, the CL free was 13 mL/min/kg. In addition, the inhibition at 3 µM against CYP3A4 [8], against CYP2D6, against CYP2C8, against CYP2C9 and against CYP1A2 was under 15% each time. The results for the negative logarithm of the IC50 (pIC50) (in data set [9]; in the data set with Epithelial cell) were under 5.00 and under 3.52, respectively. Moreover, the Activity entry with Salmonella typhimurium was “Non-toxic”. For the same compound, at CYP3A4 [10], the inhibition at 30 µM stood at 8%. Further, the inhibition at 60 µM against CYP3A4 [11] was found to be 24%.

For `CS(=O)(=O)c1ccc(-c2cc(-c3ccc(O)cc3)cnc2N)cc1`, in data set [1], the Papp was 17.2 ×10⁻⁶ cm/s.

With `CS(=O)(=O)c1ccc(-c2cc(-c3ccc(C(N)=O)cc3)cnc2N)cc1`, the Papp in data set [1] amounted to 6.7 ×10⁻⁶ cm/s.

On to `Nc1ccc(-c2cnc(N)c(-c3ccc(Cl)cc3)c2)cn1`, for which the pIC50 in [3] was 8.43; in data set [4] it was 6.80; in [12] it was 7.82; at Misshapen-like kinase 1, 8.10; against Cytochrome P450 1A2 it was 5.52; in data set [9], 5.74. In the data set with Epithelial cell, this compound showed a negative logarithm of the IC50 (pIC50) of under 3.92. The Papp in [1] was 7.1 ×10⁻⁶ cm/s. The results for the solubility in data set [6] and in data set [7] were 13000 µg/mL (≈ 43.8 mM) and 5800 µg/mL (≈ 19.5 mM), respectively. Further, the CL free with Liver microsome came out at 89 mL/min/kg. The inhibition at 3 µM against CYP3A4 [8], at CYP2D6, against CYP2C8 and on CYP2C9 was under 15% throughout. For the same compound, the Activity result with Salmonella typhimurium is “Toxic”. Further, in data set [13], the fraction unbound came to 0.038. Moreover, the inhibition in vivo at 15 mg/kg in the data set with Mus musculus [14] is over 90%. In the data set on Plasma, this compound had a Cp of 439 ng/mL. Also, in the data set on Mus musculus [15], the inhibition in vivo at 10 mg/kg was found to be 44%. At CYP3A4 [10], testing at 30 µM gave an inhibition of 54%. In addition, the inhibition at 60 µM against CYP3A4 [11] worked out at 61%.

`NC(=O)c1ccc(-c2cncc(-c3ccc(Cl)cc3)c2)cc1` yielded a Papp in data set [1] of 8.7 ×10⁻⁶ cm/s.

Take `NC(=O)c1ccc(-n2cc(-c3ccc(Cl)cc3)cn2)cc1`: the pIC50 in data set [3] was 6.61; in [4], under 4.52; in [5], under 5.00.

For `Nc1ncc(-c2cc[nH]c(=O)c2)cc1-c1ccc(Cl)cc1`, in data set [1], the Papp is 15.7 ×10⁻⁶ cm/s.
